Experimental data reported in US20130210625A1, “SPIROHETEROCYCLIC PYRROLIDINE DERIVATIVES BASED PESTICIDES” (SYNGENTA CROP PROTECTION LLC, priority 2010, published 2013).

Experiments:
[1] = system: Myzus persicae (Green Peach Aphid); assay: Activity against Myzus persicae on cabbage plants, feeding/residual contact activity (Example B5); type: in vivo; settings: 144 h, infested cabbage plants, spray chamber, mortality 6 days after treatment
Experimental: Activity Against Myzus persicae (Green Peach Aphid) (Mixed Population, Feeding/Residual Contact Activity, Plant Damage Evaluation)
Cabbage plants infested with a mixed population of Myzus persicae are treated with diluted test solutions of the compounds in a spray chamber. 6 days after treatment, samples are checked for mortality and for plant damage (phytotoxicity), visual assessment being made using a 0-100% rating scale (100%=total damage to plant; 0%=no damage to plant).

[2] = system: Tetranychus urticae (Two-Spotted Spider Mite); assay: Activity against Tetranychus urticae, mixed population, feeding/residual contact activity, preventive (Example B4); type: in vivo; settings: foliar, 192 h, bean leaf discs sprayed, egg, larval and adult mortality 8 days later
Source text: Activity Against Tetranychus urticae (Two-Spotted Spider Mite) (Mixed Population, Feeding/Residual Contact Activity, Preventive)
Bean leaf discs on agar in 24-well microtiter plates are sprayed with test solutions. After drying, the leaf discs are infested with mite populations of mixed ages. 8 days later, discs are checked for egg mortality, larval mortality, and adult mortality.

[3] = system: Myzus persicae (Green Peach Aphid); assay: Activity against Myzus persicae, mixed population, systemic/feeding activity, curative (Example B2); type: in vivo; settings: 144 h, roots of infested pea seedlings in test solution, mortality 6 days after introduction
Source text: Activity Against Myzus persicae (Green Peach Aphid) (Mixed Population, Systemic/Feeding Activity, Curative)
Roots of pea seedlings, infested with an aphid population of mixed ages, are placed directly in the test solutions. 6 days after introduction, samples are checked for mortality and special effects on the plant.

[4] = system: Myzus persicae (Green Peach Aphid); assay: Activity against Myzus persicae, mixed population, feeding/residual contact activity, preventive (Example B1); type: in vivo; set-up: concentration or dose not given beside the values; settings: foliar, 144 h, sunflower leaf discs sprayed, mortality checked after 6 days
Experimental: Activity Against Myzus persicae (Green Peach Aphid) (Mixed Population, Feeding/Residual Contact Activity, Preventive)
Sunflower leaf discs are placed on agar in a 24-well microtiter plate and sprayed with test solutions. After drying, the leaf discs are infested with an aphid population of mixed ages. After an incubation period of 6 days, samples are checked for mortality and special effects (e.g. phytotoxicity).

[5] = system: Aphis craccivora (Cowpea Aphid); assay: Activity against Aphis craccivora, mixed population, contact/feeding (Example B9); type: in vivo; settings: 200 ppm; infested pea seedlings, spray chamber; mortality 6 days after treatment
Experimental: Activity Against Aphis craccivora (Cowpea Aphid) (Mixed Population, Contact/Feeding)
Pea seedlings, infested with an aphid population of mixed ages, are treated (2 replicates) with diluted test solutions in a spray chamber. 6 days after treatment, samples are checked for mortality.

Structure (SMILES) | pest or weed control at 200 ppm [1] [%] | pest or weed control at 400 ppm [2] [%] | pest or weed control at 400 ppm [3] [%] | pest or weed control [4] [%] | melting point [°C] | activity [5]
CC#Cc1cc(C)c(C2=C(OC(=O)OCC)C3(CCN(OC)CC3)N(C)C2=O)c(C)c1 [Compound P1.14] | ≥ 80 | > 80 | > 80 | – | – | –
C=Cc1cc(C)cc(C)c1C1=C(OC(=O)OCC)C2(CCN(OC)CC2)NC1=O [Compound P1.3] | ≥ 80 | > 80 | > 80 | > 80 | – | –
CC#Cc1cc(C)c(C2=C(O)C3(CCN(OC)CC3)N(C)C2=O)c(C)c1 [Compound P2.13, 3-(2,6-Dimethyl-4-prop-1-ynyl-phenyl)-4-hydroxy-8-methoxy-1-methyl-1,8-diaza-spiro[4.5]dec-3-en-2-one] | ≥ 80 | – | – | – | – | –
C#Cc1cc(C)cc(C)c1C1C(=O)N(C)C2(CCN(OC)CC2)C1=O (stereo not shown) [Compound P2.7] | ≥ 80 | > 80 | – | > 80 | – | –
C=Cc1cc(C)cc(C)c1C1=C(OC(=O)OCC)C2(CCN(OC)CC2)N(OC2CCCO2)C1=O (stereo not shown) [Compound P1.5, Carbonic acid 3-(2,4-dimethyl-6-vinyl-phenyl)-8-methoxy-2-oxo-1-(tetrahydro-furan-2-yloxy)-1,8-diaza-spiro[4.5]dec-3-en-4-yl ester ethyl ester] | ≥ 80 | > 80 | – | > 80 | – | –
CON1CCC2(CC1)NC(=O)C(c1cc(C(C)=O)ccc1C)C2=O (stereo not shown) [Compound P2.1] | – | – | – | – | 218 to 220 | –
C=Cc1cc(C)cc(C)c1C1=C(OC(=O)OCC)C2(CCN(OC)CC2)N(C)C1=O [Compound P1.4] | ≥ 80 | > 80 | – | > 80 | – | –
C#Cc1ccc(C)cc1C1C(=O)N(OC)C2(CCN(OC)CC2)C1=O (stereo not shown) [Compound P2.10] | ≥ 80 | – | – | – | – | –
COC(=O)c1ccc(C)c(C2C(=O)NC3(CCN(OC)CC3)C2=O)c1 (stereo not shown) [Compound P2.2] | – | – | – | – | 245 to 247 | –
C=Cc1cc(C)cc(C)c1C1=C(O)C2(CCN(OC)CC2)N(C)C1=O [Compound P2.4, 3-(2,4-Dimethyl-6-vinyl-phenyl)-4-hydroxy-8-methoxy-1-methyl-1,8-diaza-spiro[4.5]dec-3-en-2-one] | ≥ 80 | – | – | – | – | –
C#Cc1cc(C)cc(C)c1C1=C(OC(=O)OCC)C2(CCN(OC)CC2)N(C)C1=O [Compound P1.8] | ≥ 80 | > 80 | > 80 | > 80 | – | –
C#Cc1cc(C)c(C2=C(O)C3(CCN(OC)CC3)N(C)C2=O)c(C)c1 [Compound P2.12, 3-(4-Ethynyl-2,6-dimethyl-phenyl)-4-hydroxy-8-methoxy-1-methyl-1,8-diaza-spiro[4.5]dec-3-en-2-one] | ≥ 80 | – | > 80 | > 80 | – | –
C=Cc1cc(C)c(C2=C(OC(=O)OCC)C3(CCN(OC)CC3)N(C)C2=O)c(C)c1 [Compound P1.6] | ≥ 80 | – | – | – | – | over 80%
C#Cc1ccc(C)cc1C1=C(OC(=O)OCC)C2(CCN(OC)CC2)N(OC)C1=O [Compound P1.11] | ≥ 80 | > 80 | – | > 80 | – | –
C#Cc1cc(C)c(C2=C(OC(=O)OCC)C3(CCN(OC)CC3)NC2=O)c(C)c1 [Compound P1.12] | ≥ 80 | – | > 80 | > 80 | – | –
C#Cc1cc(C)cc(C)c1C1=C(OC(=O)OCC)C2(CCN(OC)CC2)N(OC2CCCO2)C1=O (stereo not shown) [Compound P1.9] | ≥ 80 | > 80 | > 80 | > 80 | – | –
C#Cc1cc(C)cc(C)c1C1C(=O)NC2(CCN(OC)CC2)C1=O (stereo not shown) [Compound P2.6] | ≥ 80 | > 80 | > 80 | > 80 | – | –
C#Cc1ccc(C)cc1C1=C(OC(=O)OCC)C2(CCN(OC)CC2)NC1=O [Compound P1.10] | ≥ 80 | – | – | – | – | –
C#Cc1cc(C)cc(C)c1C1C(=O)N(OC2CCCO2)C2(CCN(OC)CC2)C1=O (stereo not shown) [Compound P2.8] | ≥ 80 | > 80 | > 80 | > 80 | – | –
C#Cc1cc(C)c(C2C(=O)NC3(CCN(OC)CC3)C2=O)c(C)c1 (stereo not shown) [Compound P2.11] | ≥ 80 | – | > 80 | > 80 | – | –
C=Cc1cc(C)cc(C)c1C1=C(O)C2(CCN(OC)CC2)NC1=O [Compound P2.3, 3-(2,4-Dimethyl-6-vinyl-phenyl)-4-hydroxy-8-methoxy-1,8-diaza-spiro[4.5]dec-3-en-2-one] | ≥ 80 | > 80 | – | > 80 | – | –
C#Cc1cc(C)cc(C)c1C1=C(OC(=O)OCC)C2(CCN(OC)CC2)NC1=O [Compound P1.7] | ≥ 80 | > 80 | > 80 | > 80 | – | –
C#Cc1cc(C)c(C2=C(OC(=O)OCC)C3(CCN(OC)CC3)N(C)C2=O)c(C)c1 [Compound P1.13] | ≥ 80 | – | > 80 | > 80 | – | –
C=Cc1cc(C)cc(C)c1C1=C(O)C2(CCN(OC)CC2)N(OC2CCCO2)C1=O (stereo not shown) [Compound P2.5, 3-(2,4-Dimethyl-6-vinyl-phenyl)-4-hydroxy-8-methoxy-1-(tetrahydro-furan-2-yloxy)-1,8-diaza-spiro[4.5]dec-3-en-2-one] | ≥ 80 | – | – | – | – | –
CCOC(=O)OC1=C(c2cc(C(C)=O)ccc2C)C(=O)NC12CCN(OC)CC2 [Compound P1.2] | – | – | – | – | 185 to 187 | –
